Measured values from US12291517B2, “Crystalline form of 6-(cyclopropanecarboxamido)-4-((2-methoxy-3-(1-methyl-1H-1,2,4-triazol-3-yl)phenyl)amino)-n-(methyl-D3) pyridazine-3-carboxamide” (Bristol-Myers Squibb Company, priority 2018, dated 2025).
Read-outs that look alike come from different tables or passages of the source. Each block holds one molecule with its values, some of them ahead of it.

Legend:
[1] = Micro-dissolution comparative study of potential salts (pH transfer model); format: physicochemical; parameters: AUC pH 2-6.5 Mean / AUC pH 6-6.5 Mean: unit not given beside the values; details: for pH-effect Ratio: AUC pH 6-6.5 over AUC pH 2-6.5
[2] = Dog PK study, pH effect of free base vs. HCl salt; format: in vivo; details: for BA Mean / Cmax / Tmax / AUC(0-t): dog, capsule, 10 mg (1 mpk), famotidine treated (Famo); for Cmax / Tmax / AUC(0-t): in vivo, po, 1 mg/kg; for AUC(0-t): read-out: AUC0-24 h Mean
Excerpt: In famotidine treated dogs, the mean bioavailability of the HCl salt is 60% higher than the free base.

[3] = Dog PK study, pH effect of free base vs. HCl salt; format: in vivo; details: capsule, 10 mg (1 mpk), Penta
[4] = Physical and chemical stability of Form B on storage at different temperature and humidity; format: physicochemical
Protocol: Samples of Form B of Compound (I) were stored at different conditions of temperature and humidity for 4 weeks. The physical stability, characterized by DSC, TGA, and PXRD, were measured at 2 and 4 weeks.

[5] = as above; format: physicochemical; remark: listed apart in the source
[6] = Moisture sorption isotherm; format: physicochemical
Protocol: Moisture sorption isotherms were collected in a TA Instrument VTI-SA+Vapor Sorption Analyzer using approximately 10 mg of sample. The sample was dried at 60° C. until the loss rate of 0.0005 wt %/min was obtained for 10 minutes. The sample was tested at 25° C. and 3 or 4, 5, 15, 25, 35, 45, 50, 65, 75, 85, and 95% RH. Equilibration at each RH was reached when the rate of 0.0003 wt %/min for 35 minutes was achieved or a maximum of 600 minutes.

- pH-effect Ratio [1]: 0.27
- AUC pH 2-6.5 Mean [1]: 6094.11
- AUC pH 6-6.5 Mean [1]: 1640.60
- BA Mean [2]: 85.44%
- Cmax [2]: 62.8 ng/mL
- Tmax [2]: 3.5 h
- AUC(0-t) [2]: 586 ng·h/mL
- BA Mean [3]: 100.00%
- Cmax ([3]; in vivo, po, 1 mg/kg): 122 ng/mL
- Tmax ([3]; in vivo, po, 1 mg/kg): 2.5 h
- AUC(0-t) ([3]; in vivo, po, 1 mg/kg, read-out: AUC0-24 h Mean): 975 ng·h/mL
SMILES: [2H]C([2H])([2H])NC(=O)c1nnc(NC(=O)C2CC2)cc1Nc1cccc(-c2ncn(C)n2)c1OC [Compound (I), 6-(cyclopropanecarboxamido)-4-((2-methoxy-3-(1-methyl-1H-1,2,4-triazol-3-yl)phenyl)amino)-N-(methyl-d3)pyridazine-3-carboxamide]

- pH-effect Ratio [1]: 0.45
- AUC pH 2-6.5 Mean [1]: 12045.08
- AUC pH 6-6.5 Mean [1]: 5368.76
SMILES: CS(=O)(=O)O.[2H]C([2H])([2H])NC(=O)c1nnc(NC(=O)C2CC2)cc1Nc1cccc(-c2ncn(C)n2)c1OC [MSA salt]

- pH-effect Ratio [1]: 0.61
- AUC pH 2-6.5 Mean [1]: 12345.28
- AUC pH 6-6.5 Mean [1]: 7492.66
- BA Mean [2]: 160.90%
- Cmax [2]: 180 ng/mL
- Tmax [2]: 2 h
- AUC(0-t) [2]: 1340 ng·h/mL
- Mean bioavailability higher than the free base ([2]; famotidine treated dogs, 1 mpk): 60%
- % Assay ([4]; 5° C. (control), 2 weeks): 98.32%
- % Assay ([4]; 25° C./60% RH (closed), 2 weeks): 98.26%
- % Assay ([4]; 40° C./75% RH (open), 4 weeks): 98.37%
- % Assay ([4]; 50° C., 4 weeks): 98.40%
- % Assay ([4]; HIL/UV, 4 weeks): 98.44%
- Chemical stability ([4]; storage conditions of Table 3, up to 4 weeks): no measure change in chemical stability
- % Assay ([5]; 5° C., 1 Month, corrected for water and total volatiles): 100.3%
- % Assay ([5]; 5° C., 2 weeks): 98.31%
- % Assay ([5]; 5° C., 3 Months, corrected for water and total volatiles): 100.9%
- % Assay ([5]; 5° C., 4 weeks): 98.40%
- % Assay ([5]; 5° C., 6 Months, corrected for water and total volatiles): 100.3%
- % Assay ([5]; 5° C., 12 Months, corrected for water and total volatiles): 100.2%
- % Assay ([5]; 25° C./60% RH (closed), 1 Month, corrected for water and total volatiles): 98.8%
- % Assay ([5]; 25° C./60% RH (closed), 3 Months, corrected for water and total volatiles): 100.9%
- % Assay ([5]; 25° C./60% RH (closed), 4 weeks): 98.39%
- % Assay ([5]; 25° C./60% RH (closed), 6 Months, corrected for water and total volatiles): 99.4%
- % Assay ([5]; 25° C./60% RH (closed), 12 Months, corrected for water and total volatiles): 99.9%
- % Assay ([5]; 40° C./75% RH (open), 1 Month, corrected for water and total volatiles): 99.8%
- % Assay ([5]; 40° C./75% RH (open), 2 weeks): 98.29%
- % Assay ([5]; 40° C./75% RH (open), 3 Months, corrected for water and total volatiles): 98.7%
- % Assay ([5]; 40° C./75% RH (open), 6 Months, corrected for water and total volatiles): 101.0%
- % Assay ([5]; 40° C./75% RH (open), 12 Months, corrected for water and total volatiles): 100.3%
- % Assay ([5]; 50° C., 2 weeks): 98.32%
- % Assay ([5]; HIL/UV, 2 weeks): 98.44%
- % Assay ([5]; −20° C., 1 Month, corrected for water and total volatiles): 99.9%
- Hygroscopicity [6]: non-hygroscopic
- Moisture uptake ([6]; between 25 to 75% relative humidity at 25° C.): less than 0.5%
SMILES: Cl.[2H]C([2H])([2H])NC(=O)c1nnc(NC(=O)C2CC2)cc1Nc1cccc(-c2ncn(C)n2)c1OC [Form B of Compound (I), 6-(cyclopropanecarboxamido)-4-((2-methoxy-3-(1-methyl-1H-1,2,4-triazol-3-yl)phenyl)amino)-N-(methyl-d3)pyridazine-3-carboxamide HCl salt]
- Mitigation of the pH effect ([1]; comparison of salts): mitigates the pH effect better than MSA and sulfate (SO4) salts
- Physical stability (physical form) ([5]; by DSC, TGA and PXRD at 2 and 4 weeks, different temperature and humidity conditions): No change in the physical form was detected
- Physical or chemical degradation ([5]; tested temperature and humidity conditions): no significant physical or chemical degradation
